{
  "source": "patent US7988972B2",
  "about": "“Immunoreactive peptides from Epstein-Barr virus” (Ortho-Clinical Diagnostics, Inc., priority 1993, dated 2011)",
  "key": {"[1]": {"system": "peripheral blood lymphocytes (PBL)", "assay": "Proliferation assay of peripheral blood lymphocytes (3H-thymidine incorporation)", "assay_type": "cell-based, human", "details": "for 3H-thymidine Incorporation (cpm + S.D.) / S.I. (stimulation index): PBL from anti-VCA-positive, anti-EA-positive donor, 5 days", "protocol": "Proliferation assays. T-cell proliferation assays using the native p17 or p50 polypeptide or the synthetic peptides were performed as previously described in detail (Pothen et al., Int. J. Cancer, 49:656-660, 1991). Briefly, peripheral blood lymphocytes (PBLO from sero-positive donors were isolated on FICOLL-HYPAQUE gradients, washed and resuspended in RPMI 1640 media containing 10% heat-inactivated human A^+ serum from a sero-negative donor. Cells (1×10^5 per 0.1 ml) were then added to each well in 96-well, round-bottomed tissue culture plates (Costar, Cambridge, Mass.). The different antigen preparations were added to triplicate wells in 0.1 ml volumes and the plates were incubated at 37° C. for 5 days. ^3H-thymidine (5 Ci per mM) was added at a concentration of 1 μCi per well over the last 4 hours of culture. The cells were then harvested with a multichannel sample harvester and ^3H-thymidine incorporation was determined using a Beckman Model LS 3801 liquid scintillation counter. Stimulation indices for the test antigens were calculated by dividing the average counts per minute (CPMO for the test antigens by the average CPM of the medium control wells.\nPBL from asymptomatic EBV-infected individuals were tested for response to any of the three p17 synthetic peptides (Table 1) by a proliferation assay using lymphocytes previously shown to proliferate in the presence of native p17 (Pothen et al., Int. J. Cancer, 49:656-660, 1991). Different concentrations of the synthetic peptides were incubated with the PBL for 5 days and then proliferation was assayed by the incorporation of ^3H-thymidine. The native p17 purified from activated P3HR-1 cells gave a S.I. of 15.8 in this experiment. […] Neither of the other synthetic peptides induced a proliferation response at the concentrations tested.\nPBL from 3 anti-VCA-positive anti-EA-antibody-negative individuals were also examined in the proliferation assay with the three synthetic peptides. Again, all 3 PBL preparations responded to the highest concentrations of p17.1 with S.I.'s ranging from 3.5-11. Two of the preparations (FIG. 2A,C) also proliferated in the presence of lower concentrations of antigen with S.I.'s of 3 and 5 respectively. […] These experiments established that T-lymphocytes from EBV-infected individuals, irrespective of the presence of antibody to EA, recognized a dominant epitope on p17."}, "[2]": {"system": "anti-EA antibodies in human sera", "assay": "ELISA, serological reactivity of human sera with p17 synthetic peptides", "assay_type": "binding", "details": "for No. Positive/No. Tested / No. Positive/No. Tested (%): sera 1:10", "protocol": "ELISA. The ELISA for measuring specific antibodies to p17, p50 or to the synthetic peptides was performed as previously described in detail (Luka et al., J. Immunol. Methods, 67:145-156, 1984). Aliquots of different antigen concentrations were diluted in 0.5M Na2CO3 buffer, pH 9.5, added to wells in polystyrene microtiter plates (Linbro) and the plates incubated overnight at 4° C. Following this incubation period, the plates were washed 5× with Tris-HCl, pH 7.4, containing 0.05% Tween 20, 50 mM NaCl and 100 mg per liter albumin (Sigma) and dried for 20 minutes at room temperature. The plates were screened with different anti-EA-R or EA-D antibody positive human sera and the monoclonal antibody to p17 or p50 to identify the optimal concentration of antigen to be used in the serological studies. Alkaline-phosphatase-labelled goat anti-human IgG (Sigma) or goat anti-mouse IgG (Sigma) was used as the indicator system.\nFor the testing of human sera for antibodies to native p17, p50 or to the synthetic peptides, sera were diluted 1:10 in ELISA buffer, added in 0.1 ml volumes to wells coated with optimal concentrations of antigen and the plates were incubated for 60 minutes at room temperature. After 4 washes with ELISA buffer, 100 μl of alkaline phosphatase-labelled goat anti-human IgG in ELISA buffer were added to each well and the plates were incubated at room temperature for 1 hour. Following four more washes in buffer, the enzyme reaction was performed by dissolving 1 mg per ml of Sigma alkaline phosphatase substrate in 1M diethanolamine buffer, pH 10.4, containing 1 mM MgCl2 and 0.1 mM ZnCl2, and 100 μl of the mixture was then added to each well. The reaction was allowed to proceed for 30 minutes at 37° C. and then the plates were screened directly with a microplate reader, TITERTEK MULTISKAN MC (Flow), at 420 nm. Readings above 0.1 which was 2× the background noted with antibody-negative sera were considered positive reactions.\nStudies were designed to determine the serological reactivity with the p17 synthetic epitopes. For this purpose, 87 anti-EA antibody-positive sera (titer>160) were tested in the ELISA against optimal pre-determined concentrations (2 μg per well) of the p17 synthetic peptides. The sera were obtained from 28 patients with African Burkift's lymphoma (ABL) collected during the Ghanian Burkitt Tumor Project, and from 28 North American patients with intermediate large cell, or high grade non-Hodgkin's lymphoma (NANHL). The donors included both HIV-positive and HIV-negative individuals. In addition, sera from 31 North American nasopharyngeal carcinoma (NANPC) patients were examined in this study (Pearson, G. R., et al., Cancer, 51:260-268, 1983). To validate the EA specificity of the serological reactions, the results with these sera were compared with results with 23 VCA and EA antibody-negative sera and 30 VCA-antibody-positive, EA-antibody negative sera. In contrast to the T-cell proliferation results, all three synthetic peptides reacted with the EA antibody-positive sera to varying degrees with p17.1 again being the dominant epitope. Approximately 60% of the anti-EA-positive sera reacted with p17.1, 48% with p17.2 and 23% with p17.3.\nSeventy-one percent of the sera from ABL patients and 93% of the sera from patients with NANHL reacted with p17.1 as opposed to 23% of the sera from North American patients with NPC."}, "[3]": {"details": "serum donors: Lymphoma (total), EA titers >160"}, "[4]": {"details": "serum donors: Nasopharyngeal carcinoma (North American), EA titers >160"}, "[5]": {"details": "serum donors: Non-Hodgkin's lymphoma (North American), EA titers >160"}, "[6]": {"details": "serum donors: Normal (VCA + EA-)"}},
  "data": [
    {"sequence": "ETFTETWNRFITHTE [p17.1, synthetic peptide from 17 Kd early antigen (EA-R) region of EBV]", "values": [
      {"measurement": "S.I.", "setting": "[1]; PBL from 3 anti-VCA-positive anti-EA-antibody-negative individuals, highest concentrations", "result": "3.5-11"},
      {"measurement": "3H-thymidine Incorporation (cpm + S.D.)", "setting": "[1]; 3.12 μg/ml", "result": "263 ± 57", "unit": "cpm"},
      {"measurement": "S.I. (stimulation index)", "setting": "[1]; 3.12 μg/ml", "result": 1.8},
      {"measurement": "3H-thymidine Incorporation (cpm + S.D.)", "setting": "[1]; 12.5 μg/ml", "result": "689 ± 88", "unit": "cpm"},
      {"measurement": "S.I. (stimulation index)", "setting": "[1]; 12.5 μg/ml", "result": 4.7},
      {"measurement": "3H-thymidine Incorporation (cpm + S.D.)", "setting": "[1]; 50 μg/ml", "result": "1584 ± 37", "unit": "cpm"},
      {"measurement": "S.I. (stimulation index)", "setting": "[1]; 50 μg/ml", "result": 10.8},
      {"measurement": "S.I.", "setting": "[1]; PBL preparation of FIG. 2A (anti-VCA-positive, anti-EA-negative), lower concentrations of antigen", "result": 3},
      {"measurement": "S.I.", "setting": "[1]; PBL preparation of FIG. 2C (anti-VCA-positive, anti-EA-negative), lower concentrations of antigen", "result": 5},
      {"measurement": "proliferation response", "setting": "[1]; unfractionated PBL of donors A and B, highest concentrations tested (100 μg per ml donor A, 50 μg per ml donor B)", "result": "proliferated"},
      {"measurement": "share of anti-EA-positive sera that reacted", "setting": "[2]; 87 anti-EA antibody-positive sera (titer>160), 2 μg peptide per well", "result": "Approximately 60%"},
      {"measurement": "No. Positive/No. Tested", "setting": "[2]; serum donors: Burkitt's lymphoma (African), EA titers >160", "result": "20/28"},
      {"measurement": "No. Positive/No. Tested", "setting": "[2]; [3]", "result": "46/56"},
      {"measurement": "No. Positive/No. Tested (%)", "setting": "[2]; [3]", "result": 82, "unit": "%"},
      {"measurement": "No. Positive/No. Tested", "setting": "[2]; [4]", "result": "7/31"},
      {"measurement": "No. Positive/No. Tested (%)", "setting": "[2]; [4]", "result": 23, "unit": "%"},
      {"measurement": "No. Positive/No. Tested", "setting": "[2]; [5]", "result": "26/28"},
      {"measurement": "No. Positive/No. Tested (%)", "setting": "[2]; [5]", "result": 93, "unit": "%"},
      {"measurement": "No. Positive/No. Tested", "setting": "[2]; [6]", "result": "0/30"},
      {"measurement": "No. Positive/No. Tested (%)", "setting": "[2]; [6]", "result": 0, "unit": "%"},
      {"measurement": "No. Positive/No. Tested", "setting": "[2]; serum donors: Normal (VCA − EA-)", "result": "0/23"}
    ]}
  ]
}
